# pEC50, pIC50: −log10 of the molar value. Values joined by “and” are separate entries in the source; they are usually repeats but may differ in a detail not shown here. Equal entries are not always repeated. “Also recorded” adds a separate entry of the source. Where two headings read alike, the source gives them in different places.
# Assays:
# Thrombin a = Thrombin a (Homo sapiens, UniProt P00734); assay: biochemical
# [1] = mouse, in vivo, po
# SARS-CoV-2 [2] = assay: microbe, parasite or virus in culture; type: cell-based; details: Severe acute respiratory syndrome coronavirus 2, read-out: SARS-CoV-2 EC50
# PLpro = PLpro (Severe acute respiratory syndrome coronavirus 2, UniProt P0DTD1); assay: Protease selectivity panel: PLpro; type: biochemical; details: SARS-CoV-2 recombinant
# [3] = 2 mg/ml (3.5 mM) in water
# SARS-CoV-2 3CL protease [4] = biological target: T1, SARS-CoV-2 3CL protease (Severe acute respiratory syndrome coronavirus 2, UniProt P0DTD1); assay: biochemical
# [5] = system: Human coronavirus alpha (strain: 229E); assay: organism not typed; type: cell-based, HCoV-229E
# [6] = system: Human coronavirus beta (strain: OC43); assay: organism not typed; type: cell-based, HCoV-OC43; details: Huh-7, read-out: EC50, human coronavirus OC43
# [7] = system: SARS coronavirus (strain: Urbani); assay: organism not typed; type: cell-based, SARS-CoV
# MMP 1 = MMP 1 (Homo sapiens, UniProt P03956); assay: biochemical
# Factor Xa = Factor Xa (Homo sapiens, UniProt P00742); assay: biochemical
# SARS-CoV-2 [8] = assay: microbe, parasite or virus in culture; details: Severe acute respiratory syndrome coronavirus 2, Caco-2, 72 h, read-out: SARS-CoV-2 Caco-2 EC90
# [9] = system: MERS Coronavirus (strain: EMC); assay: microbe, parasite or virus in culture; type: cell-based, MERS-CoV
# Cathepsin B = Cathepsin B (Homo sapiens, UniProt P07858); assay: biochemical
# Trypsin = Trypsin (Bos taurus, UniProt P00760); assay: Protease selectivity panel: Trypsin; type: biochemical; details: Bovine pancreas
# Elastase = Elastase (Homo sapiens, UniProt P08246); assay: biochemical
# Cathepsin K = Cathepsin K (Homo sapiens, UniProt P43235); assay: Protease selectivity panel: Cathepsin K
# SARS-CoV-2 3CL protease [10] = biological target: T1, SARS-CoV-2 3CL protease; assay: biochemical; details: for pIC50: read-out: SARS-CoV-2 3CLpro IC50
# Furin = Furin (Homo sapiens, UniProt P09958); assay: biochemical
# ACE2 = ACE2 (Homo sapiens, UniProt Q9BYF1); assay: biochemical
# ACE1 = ACE1 (Homo sapiens, UniProt P12821); assay: biochemical
# [11] = system: Influenza A H1N1 (strain: California/07/2009); assay: microbe, parasite or virus in culture; type: cell-based
# TMPRSS2 = TMPRSS2 (Homo sapiens, UniProt O15393); assay: biochemical
# SARS-CoV-2 [12] = assay: microbe, parasite or virus in culture; type: cell-based
# Cathepsin S = Cathepsin S (Homo sapiens, UniProt P25774); assay: Protease selectivity panel: Cathepsin S
# [13] = In vivo safety study of NK01-63 (body weight); details: C57BL/6 mice, 20 mg/kg IP or PO once per day, 14 days, vs vehicle
# [14] = both, C57BL/6, mouse, in vivo
# Urokinase = Urokinase (Homo sapiens, UniProt P00749); assay: biochemical
# Caspase 8 = Caspase 8 (Homo sapiens, UniProt Q14790); assay: biochemical
# Cathepsin L = biological target: T2, Cathepsin L (Homo sapiens, UniProt P07711); assay: Protease selectivity panel: Cathepsin L; type: biochemical
# T2 construct: Human liver; from tissue; host or cells: human liver
# T2 sequence (P07711 114-333): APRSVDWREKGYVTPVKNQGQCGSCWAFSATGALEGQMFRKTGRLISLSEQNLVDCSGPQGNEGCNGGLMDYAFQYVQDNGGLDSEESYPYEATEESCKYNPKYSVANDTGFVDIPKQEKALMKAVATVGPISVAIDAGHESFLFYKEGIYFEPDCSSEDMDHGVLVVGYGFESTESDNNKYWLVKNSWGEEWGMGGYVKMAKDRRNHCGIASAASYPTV
# Chain of Elastase (P08246 30-267): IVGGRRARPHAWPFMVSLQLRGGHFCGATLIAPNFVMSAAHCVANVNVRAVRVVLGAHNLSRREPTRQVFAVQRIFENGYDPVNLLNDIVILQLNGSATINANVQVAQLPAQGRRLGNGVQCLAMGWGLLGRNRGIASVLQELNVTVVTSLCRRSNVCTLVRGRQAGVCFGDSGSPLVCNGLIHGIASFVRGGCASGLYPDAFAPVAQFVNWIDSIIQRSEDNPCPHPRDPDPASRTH
# Chain of ACE1 (P12821 30-1261): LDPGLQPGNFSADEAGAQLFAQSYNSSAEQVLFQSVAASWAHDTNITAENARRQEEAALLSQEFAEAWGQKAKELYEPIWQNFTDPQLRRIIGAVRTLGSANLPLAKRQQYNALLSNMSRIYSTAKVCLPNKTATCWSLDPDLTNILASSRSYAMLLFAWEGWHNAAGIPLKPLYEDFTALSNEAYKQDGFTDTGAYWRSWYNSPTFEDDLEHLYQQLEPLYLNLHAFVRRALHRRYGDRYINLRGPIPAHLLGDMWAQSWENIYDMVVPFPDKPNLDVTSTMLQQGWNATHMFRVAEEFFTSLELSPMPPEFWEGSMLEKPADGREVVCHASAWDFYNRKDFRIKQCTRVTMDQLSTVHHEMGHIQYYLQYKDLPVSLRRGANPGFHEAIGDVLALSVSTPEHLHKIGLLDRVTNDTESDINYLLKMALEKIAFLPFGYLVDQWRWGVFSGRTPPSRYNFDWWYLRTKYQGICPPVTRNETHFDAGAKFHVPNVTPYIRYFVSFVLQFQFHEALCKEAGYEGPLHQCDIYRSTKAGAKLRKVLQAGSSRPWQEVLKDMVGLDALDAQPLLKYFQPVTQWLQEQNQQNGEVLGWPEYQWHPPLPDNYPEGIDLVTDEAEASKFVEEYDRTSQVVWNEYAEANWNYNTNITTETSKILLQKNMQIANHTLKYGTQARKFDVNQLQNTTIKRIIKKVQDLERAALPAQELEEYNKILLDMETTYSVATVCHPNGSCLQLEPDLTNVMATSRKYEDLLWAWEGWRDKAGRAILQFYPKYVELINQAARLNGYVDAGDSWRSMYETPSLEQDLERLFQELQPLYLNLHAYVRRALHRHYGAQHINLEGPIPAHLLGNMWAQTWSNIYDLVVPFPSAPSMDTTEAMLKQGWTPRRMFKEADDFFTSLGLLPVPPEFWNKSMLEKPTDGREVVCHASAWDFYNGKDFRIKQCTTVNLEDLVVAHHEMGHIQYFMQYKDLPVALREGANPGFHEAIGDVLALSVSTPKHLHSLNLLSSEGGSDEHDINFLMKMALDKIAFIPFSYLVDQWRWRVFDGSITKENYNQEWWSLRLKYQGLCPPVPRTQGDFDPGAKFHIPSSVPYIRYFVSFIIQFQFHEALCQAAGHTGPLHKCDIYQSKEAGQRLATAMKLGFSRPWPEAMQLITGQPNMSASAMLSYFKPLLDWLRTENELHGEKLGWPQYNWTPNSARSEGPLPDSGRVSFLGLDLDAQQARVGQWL
# Chain of Factor Xa (P00742 235-488): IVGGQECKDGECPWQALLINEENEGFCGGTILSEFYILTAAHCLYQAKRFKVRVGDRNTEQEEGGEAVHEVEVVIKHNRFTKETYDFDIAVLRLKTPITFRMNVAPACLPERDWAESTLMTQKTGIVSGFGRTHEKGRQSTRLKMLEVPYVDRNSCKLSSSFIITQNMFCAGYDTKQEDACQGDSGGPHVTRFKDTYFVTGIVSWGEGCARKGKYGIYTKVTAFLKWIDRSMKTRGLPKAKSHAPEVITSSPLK
# Chain of Factor Xa (P00742 41-179): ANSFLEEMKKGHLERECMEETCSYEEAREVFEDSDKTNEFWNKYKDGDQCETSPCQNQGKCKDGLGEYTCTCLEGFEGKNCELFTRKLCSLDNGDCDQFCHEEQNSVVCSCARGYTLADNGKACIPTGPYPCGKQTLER
# Chain of MMP 1 (P03956 100-268): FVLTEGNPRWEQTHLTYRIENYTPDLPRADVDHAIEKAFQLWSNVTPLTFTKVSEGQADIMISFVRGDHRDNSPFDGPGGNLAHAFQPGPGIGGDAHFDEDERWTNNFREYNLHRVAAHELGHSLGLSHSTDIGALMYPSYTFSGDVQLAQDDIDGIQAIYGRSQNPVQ
# Chain of Trypsin (P00760 24-246): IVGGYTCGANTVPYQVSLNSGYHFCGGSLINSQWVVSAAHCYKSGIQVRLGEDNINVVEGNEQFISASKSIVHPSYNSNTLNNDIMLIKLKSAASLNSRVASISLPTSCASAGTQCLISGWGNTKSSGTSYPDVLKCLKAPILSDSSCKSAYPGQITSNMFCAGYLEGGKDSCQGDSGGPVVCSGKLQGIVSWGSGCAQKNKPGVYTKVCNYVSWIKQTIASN
# Chain of TMPRSS2 (O15393 106-492): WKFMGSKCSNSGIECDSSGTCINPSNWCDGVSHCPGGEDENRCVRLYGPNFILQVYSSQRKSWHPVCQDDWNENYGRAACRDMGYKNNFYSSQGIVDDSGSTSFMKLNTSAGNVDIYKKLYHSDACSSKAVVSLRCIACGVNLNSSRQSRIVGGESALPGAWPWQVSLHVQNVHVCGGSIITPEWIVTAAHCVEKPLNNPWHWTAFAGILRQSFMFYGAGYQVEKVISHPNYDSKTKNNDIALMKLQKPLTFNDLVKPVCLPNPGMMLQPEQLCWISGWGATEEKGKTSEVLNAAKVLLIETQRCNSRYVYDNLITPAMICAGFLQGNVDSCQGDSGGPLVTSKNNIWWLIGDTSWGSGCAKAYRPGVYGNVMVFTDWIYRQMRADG
# Chain of Cathepsin K (P43235 115-329): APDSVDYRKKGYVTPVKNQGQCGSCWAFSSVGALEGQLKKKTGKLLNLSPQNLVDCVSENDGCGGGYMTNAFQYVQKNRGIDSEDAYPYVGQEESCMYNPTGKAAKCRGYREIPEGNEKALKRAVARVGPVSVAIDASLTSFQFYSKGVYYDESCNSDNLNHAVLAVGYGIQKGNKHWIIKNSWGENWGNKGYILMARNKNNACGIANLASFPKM
# Chain of Cathepsin S (P25774 115-331): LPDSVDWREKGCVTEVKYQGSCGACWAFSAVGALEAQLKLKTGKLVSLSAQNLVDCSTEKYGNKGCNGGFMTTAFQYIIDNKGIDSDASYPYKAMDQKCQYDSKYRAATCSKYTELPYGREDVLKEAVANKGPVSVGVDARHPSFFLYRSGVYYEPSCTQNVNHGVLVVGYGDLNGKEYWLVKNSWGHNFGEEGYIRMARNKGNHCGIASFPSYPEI
# Chain of Furin (P09958 108-715): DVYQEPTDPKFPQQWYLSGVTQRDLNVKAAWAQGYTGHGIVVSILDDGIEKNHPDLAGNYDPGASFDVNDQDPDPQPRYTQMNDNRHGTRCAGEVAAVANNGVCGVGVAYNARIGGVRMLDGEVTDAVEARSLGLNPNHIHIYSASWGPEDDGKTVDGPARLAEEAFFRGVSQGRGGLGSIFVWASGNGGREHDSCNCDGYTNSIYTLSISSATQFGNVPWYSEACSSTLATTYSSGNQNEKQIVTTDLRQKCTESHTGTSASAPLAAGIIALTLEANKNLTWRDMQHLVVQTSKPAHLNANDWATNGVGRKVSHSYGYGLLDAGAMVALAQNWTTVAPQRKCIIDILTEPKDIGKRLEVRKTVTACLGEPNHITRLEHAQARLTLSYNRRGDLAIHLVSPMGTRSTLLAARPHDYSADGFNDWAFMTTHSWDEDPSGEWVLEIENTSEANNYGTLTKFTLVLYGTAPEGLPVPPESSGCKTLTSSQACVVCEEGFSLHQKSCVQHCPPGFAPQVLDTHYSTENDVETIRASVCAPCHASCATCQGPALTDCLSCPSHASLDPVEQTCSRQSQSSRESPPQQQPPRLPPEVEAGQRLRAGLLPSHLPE
# Chain of ACE2 (Q9BYF1 18-740): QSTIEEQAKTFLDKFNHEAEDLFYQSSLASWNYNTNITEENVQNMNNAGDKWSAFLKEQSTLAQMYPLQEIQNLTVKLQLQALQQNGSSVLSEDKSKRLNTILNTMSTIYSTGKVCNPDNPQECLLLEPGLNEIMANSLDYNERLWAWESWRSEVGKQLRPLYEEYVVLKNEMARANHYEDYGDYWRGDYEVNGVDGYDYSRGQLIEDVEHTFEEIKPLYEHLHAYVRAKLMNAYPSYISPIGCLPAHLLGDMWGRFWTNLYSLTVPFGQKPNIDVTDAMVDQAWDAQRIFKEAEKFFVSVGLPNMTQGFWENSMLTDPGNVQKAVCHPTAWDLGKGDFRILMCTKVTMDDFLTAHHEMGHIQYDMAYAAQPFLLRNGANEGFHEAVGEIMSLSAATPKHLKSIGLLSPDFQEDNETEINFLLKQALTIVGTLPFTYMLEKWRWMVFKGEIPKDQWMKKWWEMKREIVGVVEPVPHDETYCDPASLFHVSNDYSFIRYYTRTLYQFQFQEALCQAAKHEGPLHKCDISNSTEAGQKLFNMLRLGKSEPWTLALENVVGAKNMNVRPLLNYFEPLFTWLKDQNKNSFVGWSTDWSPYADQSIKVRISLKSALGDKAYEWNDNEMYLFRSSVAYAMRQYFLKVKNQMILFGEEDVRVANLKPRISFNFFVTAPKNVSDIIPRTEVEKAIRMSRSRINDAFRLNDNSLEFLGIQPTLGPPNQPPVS
# Chain of Caspase 8 (Q14790 217-479): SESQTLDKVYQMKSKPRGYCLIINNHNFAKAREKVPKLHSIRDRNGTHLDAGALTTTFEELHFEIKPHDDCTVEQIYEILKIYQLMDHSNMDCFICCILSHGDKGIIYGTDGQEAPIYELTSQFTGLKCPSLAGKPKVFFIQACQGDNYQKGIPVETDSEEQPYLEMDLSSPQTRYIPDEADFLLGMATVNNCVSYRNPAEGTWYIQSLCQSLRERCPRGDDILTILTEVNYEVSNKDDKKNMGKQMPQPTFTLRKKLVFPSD
structure (smiles),measurement,setting,value
CC(C)C[C@H](NC(=O)OCc1cccc(C(F)(F)F)c1)C(=O)N[C@@H](C[C@@H]1CCNC1=O)C(O)S(=O)(=O)O (stereo partly drawn) [NK01-63],pIC50,Thrombin a,< 4.00
same,Body weight relative to day 0 (Figure 6A),[1],100
same,pEC50,SARS-CoV-2 [2],6.84
same,pIC50,PLpro,< 4.00
same,appearance of dosing solution in water,[3],the solution was clear
same,"observed inactivation rate vs compound concentration (Figure S19, replicate values)",SARS-CoV-2 3CL protease [4],0.0289 and 0.04017 and 0.02561 and 0.0288 and 0.05998 and 0.02398 and 0.0512 and 0.02223 and 0.03571 and 0.0324 and 0.05689 and 0.02237 and 0.0081 and 0.01635 and 0.01687
same,kinact/KI,SARS-CoV-2 3CL protease [4]; read-out: SARS-CoV-2 3CLpro kinact/KI,73300 M⁻¹ s⁻¹
same,pEC50,"[5]; Huh-7, read-out: EC50, human coronavirus 229E",> 7.00
same,pEC50,"[5]; Huh-7, read-out: HCoV-229E Huh-7 EC50",6.77
same,pEC50,[6],> 7.00
same,pEC50,"[7]; Vero 76, read-out: SARS-CoV Vero 76 EC50",> 5.52
same,pEC50,[7]; read-out: SARS-CoV Vero 76 EC50,5.68
same,pIC50,MMP 1,< 4.00
same,pIC50,Factor Xa,< 4.00
same,EC90,SARS-CoV-2 [8],81 nM
same,pEC50,"[9]; Middle East respiratory syndrome-related coronavirus, Vero 76, read-out: MERS-CoV Vero 76 EC50",> 6.00
same,pEC50,[9]; read-out: MERS-CoV Vero 76 EC50,6.09
same,pIC50,Cathepsin B,5.96
same,pIC50,Trypsin,< 4.00
same,pIC50,Elastase,< 4.00
same,pIC50,Cathepsin K,7.40
same,pIC50,SARS-CoV-2 3CL protease [10]; 20 nM protease,7.80
same,"normalized activity, dose-response curve (Figure S16)",SARS-CoV-2 3CL protease [10]; Concentration of inhibitor (nM) 0.19382,93.111 and 89.2676
same,"normalized activity, dose-response curve (Figure S16)",SARS-CoV-2 3CL protease [10]; Concentration of inhibitor (nM) 0.49485,89.4126 and 81.5809
same,"normalized activity, dose-response curve (Figure S16)",SARS-CoV-2 3CL protease [10]; Concentration of inhibitor (nM) 0.79588,77.0123 and 75.7796
same,"normalized activity, dose-response curve (Figure S16)",SARS-CoV-2 3CL protease [10]; Concentration of inhibitor (nM) 1.09691,63.0167 and 61.2038
same,"normalized activity, dose-response curve (Figure S16)",SARS-CoV-2 3CL protease [10]; Concentration of inhibitor (nM) 1.39794,43.8724 and 49.3111
same,"normalized activity, dose-response curve (Figure S16)",SARS-CoV-2 3CL protease [10]; Concentration of inhibitor (nM) 1.69897,23.8579 and 30.4568
same,"normalized activity, dose-response curve (Figure S16)",SARS-CoV-2 3CL protease [10]; Concentration of inhibitor (nM) 2,10.3698 and 13.7056
same,"normalized activity, dose-response curve (Figure S16)",SARS-CoV-2 3CL protease [10]; Concentration of inhibitor (nM) 2.30103,8.412 and 10.6599
same,"normalized activity, dose-response curve (Figure S16)",SARS-CoV-2 3CL protease [10]; Concentration of inhibitor (nM) 2.60206,5.004 and 8.702
same,"normalized activity, dose-response curve (Figure S16)",SARS-CoV-2 3CL protease [10]; Concentration of inhibitor (nM) -0.10721,91.5881 and 97.1719
same,"normalized activity, dose-response curve (Figure S16)",SARS-CoV-2 3CL protease [10]; Concentration of inhibitor (nM) -0.40824,100 and 96.1566
same,pIC50,SARS-CoV-2 3CL protease [10]; Supplementary Table 2,8.22
same,pIC50,Furin,< 4.00
same,CC50,in vitro,> 100 µM
same,pIC50,ACE2,< 4.00
same,pIC50,ACE1,< 4.00
same,effect on replication of Influenza H1N1 (in words),[11],no effect was observed
same,pEC50,"[11]; Influenza A virus, H1N1, MDCK, read-out: Influenza A (H1N1) MDCK EC50",< 4.00
same,pIC50,TMPRSS2,< 4.00
same,"inhibition of SARS-CoV-2 (Figure s17b dose-response, replicate values)",SARS-CoV-2 [12],85.8805 and 70.4035 and 120.64 and 101.121 and 104.666 and 80.4107 and 75.7397 and 52.4625 and 52.0629 and 53.1789 and 26.443 and 29.7439 and 43.7589 and 41.2695 and 18.2065 and 24.2009 and 38.2936 and 12.6905 and -1.598 and 19.9884 and -12.0156
same,pEC50,"SARS-CoV-2 [12]; Severe acute respiratory syndrome coronavirus 2, 24 h, read-out: SARS-CoV-2 Huh-7ACE2 EC50",8.22
same,pIC50,Cathepsin S,7.52
same,body weight change / in vivo toxicity,[13],no in vivo toxicity via either route of administration; also recorded: No significant change in body weight
same,concentration in plasma and lung as multiple of EC90,[14],> 100 x EC90
same,pIC50,Urokinase,< 4.00
same,pIC50,Caspase 8,4.74
same,pIC50,"Cathepsin L; Human liver, substrate 1 (Z-FR-AMC), […] Cathepsin L, read-out: IC50",8.22
same,pIC50,"Cathepsin L; Human liver, substrate 2 (MCA-PLGL-Dap(Dnp)-AR-NH2), 0.5 nM Cathepsin L, read-out: IC50",6.77
same,pIC50,Cathepsin L; read-out: IC50 on human cathepsin L,8.22

# From article PMC8989888, “Development of optimized drug-like small molecule inhibitors of the SARS-CoV-2 3CL protease for treatment of COVID-19” (Nature Communications, 2022)
